Measurements taken from US9150555B2, “Amide derivative and use thereof” (Mitsubishi Tanabe Pharma Corporation, priority 2010, dated 2015).
Read-outs that look alike come from different tables or passages of the source.

Assays:
[1] = system: IL-17 production of mouse spleen cells stimulated by rm-IL-23; assay: Production of IL-17 induced when mouse spleen cells were stimulated by recombinant mouse interleukin-23 (rm-IL-23); format: cell-based; conditions: inhibition of IL-17 production, DBA/1J mouse spleen cells, rm-IL-23 1 nmol/L, ELISA
In short: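 Spleen cells from 6-7 week-old male DBA/1J mice, 2×10^5 cells/well in 10% FCS RPMI1640, cultured 72 h at 37° C with compound (1 to 1,000 nmol/L) plus 1 nmol/L rm-IL-23. IL-17 in supernatant by ELISA; viability by WST-8 absorbance at 450 nm; IC50 by linear regression of inhibition rate.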

[2] = biological target: T1, hERG (Homo sapiens, UniProt Q12809); assay: in vitro; conditions: pH 7.4, hERG inhibition rate (%) (1 μM)
Experimental: (§1) Dimethylsulfoxide was used as a vehicle and hERG-expressed HEK 293 cells (Cytomyx) were used as test cells. Test cells were once cultured and subdivided and were stored under frozen condition in liquid nitrogen. In the study, thawed and subcultured cells having less than 30 of the passage number were used. Test cells were cultured in a carbon dioxide incubator BNP-110M (Tabai Espec Corp.) at 37±1° C., and 5.0±0.5% of carbon dioxide concentration. The component of culture medium was MEM (Minimum Essential Medium) supplemented with 10 vol % fetal bovine serum (non-activated), 1 mmol/L sodium pyruvate, 0.1 mmol/L non-essential amino acid, 100 U/mL penicillin with 100 μg/mL streptomycin. To select gene-expressing cells, 400 μg/mL G418 Sulphate (Invitrogen) was added to the culture medium. In the dishes for the measurement, the medium which not contain G418 Sulphate (Invitrogen) was used.
(§2) As to seeding of cells for measurement, subcultured cells which became confluent were treated with 0.25% trypsin-solution containing 1 mmol/L EDTA (Invitrogen) to remove from the plate, and seeded on sterilized collagen-coated cover glass (Iwaki, AGC Techno Glass Co., LTD). The medium was exchanged appropriately, including the day of measurement.
(§3) A perfusion method was applied to the experiment. Test cells were perfused (perfusion speed: approximately 4 mL/min) with an external solution containing specified concentrations of test compounds (component of external solution: 137 mmol/L of sodium chloride, 4 mmol/L of potassium chloride, 10 mmol/L of HEPES, 1.8 mmol/L of calcium chloride, 1 mmol/L of magnesium chloride and 10 mmol/L of glucose; adjusted to pH 7.4±0.1 with sodium hydroxide aqueous solution). […] When effects were observed, the perfusion was continued until the maximum response was observed. […] The data were obtained from one experiment or more and the cells which were incubated in a carbon dioxide incubator after seeding and attached to cover slips were used for the measurement.
(§4) A whole-cell clamping method was applied to the measurement. Test cells were perfused (perfusion speed: approximately 4 mL/min) with an external solution (component of external solution: 137 mmol/L of sodium chloride, 4 mmol/L of potassium chloride, 10 mmol/L of HEPES, 1.8 mmol/L of calcium chloride, 1 mmol/L of magnesium chloride and 10 mmol/L of glucose; adjusted to pH 7.4±0.1 with sodium hydroxide aqueous solution). A glass electrode with a resistance of 2 to 6 MΩ, filled with an internal solution (component: 130 mmol/L of potassium chloride, 1 mmol/L of magnesium chloride, 5 mmol/L of EGTA, 10 mmol/L of HEPES and 5 mmol/L of ATP adjusted to pH 7.2±0.1 with sodium hydroxide aqueous solution) was used. After rupturing cell membrane with glass electrode, the cell membrane voltage was held at −80 mV via a patch clamp software (pCLAMP9 [Axon CNS], Molecular Devices) using patch clamp amplifier (EPC8, HEKA). […] Test cells and the cell-attached cover glass were changed every treatment. Temperature of the fluid in a perfusion fluid tank was 24±2° C.
(§5) The obtained current was recorded on a computer via a patch clamp amplifier using patch clamp software. An evaluation item was a tail peak current.
(§6) A tail peak current was analyzed using analyzing software (Clampfit 9 [Axon CNS], MolecularDevices). Each 2 pulses of before and after perfusion of test compound for each concentration was analyzed, and a peak values of the tail current on the pulses were determined. The inhibition ratio was determined according to the following equation:

[3] = biological target: T2, hERG current in hERG-expressed HEK 293 cells (Homo sapiens, UniProt Q12809); assay: Effects on hERG current (whole-cell clamping); conditions: 1 μM; tail peak current; hERG-expressed HEK 293 cells
Experimental: as §1, §2, §3, §4, §5, §6

[4] = biological target: T2, hERG current in hERG-expressed HEK 293 cells
Experimental: as §1, §2, §3, §4, §5, §6

[5] = system: Type II collagen-induced arthritis in DBA/1J mice; assay: Type II collagen-induced arthritis in DBA/1J mice; format: in vivo, mouse; conditions: dose showing significant inhibitory effect on arthritis, oral, once a day for three weeks from booster immunization; for minimal effective dose: Mus musculus, 504 h
Experimental: Effect on Type II Collagen-Induced Arthritis in DBA/1J Mice
An emulsion was prepared by mixing bovine II collagen (100-200 μg purchased from collagen Gijyutsu Kenshuukai) and Freund's complete adjuvant (Sigma Aldrich) containing killed Mycobacterium tuberculosis H37Ra. Arthritis was induced by immunization through subcutaneous administration of the emulsion to the tail of 6-7 week-old male DBA/1J mouse (Charles River Japan, Inc.), followed by booster immunization three weeks later by administration of an emulsion prepared by mixing bovine II collagen with Freund's incomplete adjuvant (Sigma-Aldrich). Test compound was suspended or dissolved in 0.5% carboxymethylcellulose (Sigma-Aldrich) and repeatedly administered orally once a day at a dose of 0.1 to 10 mg/kg body weight using an oralsonde for three weeks from the day of booster immunization. In this model, the symptom of arthritis of the limbs was each evaluated according to the following evaluation criteria of 0 to 4 scores: 0, No change; 1, edema in only one joint; 2, edema in two or more joints, or light edema of the entire limb; 3, severe edema of the entire limb; 4, severe edema of the entire limb and ankylosis and immovability of joint. The score of arthritis of each mouse was expressed as the total of the scores of the limbs (Maximum: 16 points). On the next day of the last administration, soft X-ray photograph of the limbs was taken with soft X-ray equipment (Omic), and the level of joint destruction was evaluated by observation under a microscope. In each finger of the limbs the score of joint destruction was judged as 0 when no joint destruction was found, and as 1 when one or more destruction was found, and the score of joint destruction of a mouse was expressed as the total of scores for each finger of limb (Maximum: 20). The arthritis score and joint destruction score were expressed as the average value and standard error for each group (n=6-8). Only a vehicle was administered in a control group, and statistical analysis was performed by Dunnett's multiple comparison test, in which the case was judged as significant when the p value was less than 0.05.

[6] = biological target: T1, hERG; assay: Effects on hERG current (whole-cell clamping); conditions: human, HEK 293 cells that express hERG, pH 7.4, hERG inhibition rate (%) (1 μM), 1 μM; tail peak current; hERG-expressed HEK 293 cells
Experimental: as §1, §2, §3, §4, §5, §6

T1 sequence (Q12809 whole entry): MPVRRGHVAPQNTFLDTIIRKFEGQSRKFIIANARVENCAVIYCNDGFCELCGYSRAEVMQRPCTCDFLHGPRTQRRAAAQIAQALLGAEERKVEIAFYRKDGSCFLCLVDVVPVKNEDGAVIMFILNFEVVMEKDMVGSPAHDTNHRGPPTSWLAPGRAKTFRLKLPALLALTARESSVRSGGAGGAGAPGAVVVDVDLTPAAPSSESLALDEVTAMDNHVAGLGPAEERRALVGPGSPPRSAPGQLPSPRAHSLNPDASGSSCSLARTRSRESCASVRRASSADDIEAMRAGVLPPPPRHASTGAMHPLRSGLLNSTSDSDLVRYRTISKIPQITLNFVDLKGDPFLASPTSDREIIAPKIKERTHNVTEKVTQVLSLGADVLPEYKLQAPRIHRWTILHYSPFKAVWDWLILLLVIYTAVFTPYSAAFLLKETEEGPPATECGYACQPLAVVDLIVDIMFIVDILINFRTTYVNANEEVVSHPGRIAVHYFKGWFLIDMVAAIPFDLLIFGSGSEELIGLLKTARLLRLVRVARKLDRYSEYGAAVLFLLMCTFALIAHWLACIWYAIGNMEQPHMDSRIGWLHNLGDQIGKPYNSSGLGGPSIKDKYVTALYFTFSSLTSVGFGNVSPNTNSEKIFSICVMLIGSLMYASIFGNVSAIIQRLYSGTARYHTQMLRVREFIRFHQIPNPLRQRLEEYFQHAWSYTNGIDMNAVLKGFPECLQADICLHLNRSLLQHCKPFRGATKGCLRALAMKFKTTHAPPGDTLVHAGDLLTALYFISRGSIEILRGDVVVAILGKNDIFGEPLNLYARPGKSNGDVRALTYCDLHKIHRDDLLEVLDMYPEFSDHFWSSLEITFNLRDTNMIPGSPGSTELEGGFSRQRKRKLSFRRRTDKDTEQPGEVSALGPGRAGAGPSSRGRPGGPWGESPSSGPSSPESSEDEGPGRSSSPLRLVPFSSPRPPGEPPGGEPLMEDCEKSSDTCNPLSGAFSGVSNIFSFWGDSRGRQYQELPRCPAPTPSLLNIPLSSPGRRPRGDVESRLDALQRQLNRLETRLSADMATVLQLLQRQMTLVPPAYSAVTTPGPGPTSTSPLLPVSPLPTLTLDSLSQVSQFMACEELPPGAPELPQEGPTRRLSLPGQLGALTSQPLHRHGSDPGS
T2 sequence (Q12809 whole entry): as above

Cc1c(C(=O)Nc2ccc(C3(C#N)CCN([C@H]4CCO[C@H]4C)CC3)nc2)cnn1-c1ccc(C(F)(F)F)cn1 (relative stereo) [Example D8, cis-N-{6-[4-Cyano-1-(2-methyltetrahydrofuran-3-yl)piperidin-4-yl]pyridin-3-yl}-5-methyl-1-[5-(trifluoromethyl)pyridin-2-yl]-1H-pyrazole-4-carboxamide]
IC50 ([1]; 72 hours): 114 nM | inhibition at 1 µM [2]: 15.8%

Cc1c(C(=O)Nc2ccc(C3(C#N)CCN([C@H]4CCO[C@H]4C)CC3)nc2)cnn1-c1ccc(C2CC2)cn1 (relative stereo) [Example D10, cis-N-{6-[4-Cyano-1-(2-methyltetrahydrofuran-3-yl)piperidin-4-yl]pyridin-3-yl}-1-(5-cyclopropylpyridin-2-yl)-5-methyl-1H-pyrazole-4-carboxamide]
IC50 ([1]; 72 hours): 120 nM | inhibition at 1 µM [2]: 6.7%

Cc1c(C(=O)Nc2ccc(C3(C#N)CCN([C@H]4CCO[C@H]4C)CC3)nc2)cnn1-c1ccc(C(F)(F)F)cc1 (relative stereo) [Example D11, cis-N-{6-[4-Cyano-1-(2-methyltetrahydrofuran-3-yl)piperidin-4-yl]pyridin-3-yl}-5-methyl-1-[4-(trifluoromethyl)phenyl]-1H-pyrazole-4-carboxamide]
IC50 ([1]; 72 hours): 53.4 nM | inhibition at 1 µM [2]: 21%

Cc1ccc(-n2ncc(C(=O)Nc3ccc(C4(C#N)CCC(N5CCOCC5)CC4)nc3)c2C)cc1.Cl (stereo not drawn) [Example D2, N-{6-[r-1-Cyano-c-4-(morpholin-4-yl)cyclohexyl]pyridin-3-yl}-5-methyl-1-(4-methylphenyl)-1H-pyrazole-4-carboxamide hydrochloride]
IC50 ([1]; 72 hours): 193 nM | hERG inhibition rate (%) (1 μM) [3]: 43.4%

COCOC1CCC(C#N)(c2ccc(NC(=O)c3cnn(-c4ccc(C)cc4)c3C)cn2)CC1 (stereo not drawn) [Example D3, N-{6-[r-1-Cyano-c-4-(methoxymethoxy)cyclohexyl]pyridin-3-yl}-5-methyl-1-(4-methylphenyl)-1H-pyrazole-4-carboxamide]
IC50 ([1]; 72 hours): 182 nM | hERG inhibition rate (%) (1 μM) [4]: 7.2%

Cc1c(C(=O)Nc2ccc(C3(C#N)CCN(CC(C)(C)O)CC3)nc2)cnn1-c1ccc(C(F)(F)F)cn1 [Example D9, N-{6-[4-Cyano-1-(2-hydroxy-2-methylpropyl)piperidin-4-yl]pyridin-3-yl}-5-methyl-1-[5-(trifluoromethyl)pyridin-2-yl]-1H-pyrazole-4-carboxamide]
IC50 ([1]; 72 hours): 76.7 nM | inhibition at 1 µM [2]: 42.1%

Cc1c(C(=O)Nc2ccc(C3(C#N)CCN(CC(C)(C)O)CC3)nc2)cnn1-c1ccc(C2CC2)cn1 [Example D12, N-{6-[4-Cyano-1-(2-hydroxy-2-methylpropyl)piperidin-4-yl]pyridin-3-yl}-1-(5-cyclopropylpyridin-2-yl)-5-methyl-1H-pyrazole-4-carboxamide]
IC50 ([1]; 72 hours): 117 nM | inhibition at 1 µM [2]: 29.2%

CS(=O)(=O)O.Cc1cc(NC(=O)c2cnn(-c3ccc(C(F)(F)F)cn3)c2C)cnc1C1=CCC(N2CCOCC2)CC1 (stereo not drawn) [Example D20, 5-Methyl-N-{5-methyl-6-[4-(morpholin-4-yl)cyclohex-1-en-1-yl]pyridin-3-yl}-1-[5-(trifluoromethyl)pyridin-2-yl]-1H-pyrazole-4-carboxamide mesylate]
IC50 ([1]; Mus musculus, 72 h): 56.4 nM | minimal effective dose [5]: 1 mg/kg | inhibition at 1 µM [6]: 32.2%

Cc1c(C(=O)Nc2ccc(C3(C#N)CCN(CC(C)(C)O)CC3)nc2)cnn1-c1ccc(Cl)cc1 [Example D116]
IC50 ([1]; 72 hours): 129 nM | inhibition at 1 µM [2]: 41.2%

Cc1c(C(=O)Nc2ccc(C3(C#N)CCN(CC(C)(C)O)CC3)nc2)cnn1-c1ccc(C(F)(F)F)cc1 [Example D117]
IC50 ([1]; 72 hours): 57 nM | inhibition at 1 µM [2]: 35.6%

Cc1c(C(=O)Nc2ccc([C@]3(C#N)CC[C@@H](N4CCOCC4)CC3)nc2)cnn1-c1ccc(C(F)(F)F)cc1 [Example D146]
IC50 ([1]; Mus musculus, 72 h): 46.6 nM | minimal effective dose [5]: 0.1 mg/kg | inhibition at 1 µM [6]: 47.2%

Cc1cc(NC(=O)c2cnn(-c3ccc(C(F)(F)F)cn3)c2C)cnc1C1=CC[C@@H](N2CCOCC2)CC1 [Example D303]
IC50 ([1]; 72 hours): 48 nM | hERG inhibition rate (%) (1 μM) [3]: 22.7%

Cc1c(C(=O)Nc2ccc(C3(C#N)CCN(C4CCOCC4)CC3)nc2)cnn1-c1ccc(C(F)(F)F)cc1 [Example E7]
IC50 ([1]; 72 hours): 349 nM | inhibition at 1 µM [2]: 21.1%

Cc1c(C(=O)Nc2ccc(C3CCC(=O)CC3)nc2)cnn1-c1ccc(Cl)cc1 [Example E13]
IC50 ([1]; Mus musculus, 72 h): 109 nM | minimal effective dose [5]: 1 mg/kg | inhibition at 1 µM [6]: 10.3%

Cc1cc(NC(=O)c2cnn(-c3ccc(C(F)(F)F)cc3)c2C)cnc1C1=CCC(N2CCOCC2)CC1 (stereo not drawn) [Example E24]
minimal effective dose [5]: 1 mg/kg

Cc1c(C(=O)Nc2ccc([C@]3(C#N)CC[C@@H](O)CC3)nc2)cnn1-c1ccc(Cl)cc1 [Example G1, 1-(4-Chlorophenyl)-N-[6-(r-1-cyano-c-4-hydroxycyclohexyl)pyridin-3-yl]-5-methyl-1H-pyrazole-4-carboxamide]
IC50 ([1]; Mus musculus, 72 h): 118 nM | minimal effective dose [5]: 3 mg/kg | inhibition at 1 µM [6]: 25.8%

Cc1c(C(=O)Nc2ccc([C@]3(C#N)CC[C@@H](O)CC3)nc2)cnn1-c1ccc(F)cc1 [Example G2, N-[6-(r-1-cyano-c-4-hydroxycyclohexyl)pyridin-3-yl]-1-(4-fluorophenyl)-5-methyl-1H-pyrazole-4-carboxamide]
IC50 ([1]; Mus musculus, 72 h): 194 nM | minimal effective dose [5]: 1 mg/kg | inhibition at 1 µM [6]: 15.2%

Cc1ccc(-n2ncc(C(=O)Nc3ccc([C@]4(C#N)CC[C@@H](O)CC4)nc3)c2C)cc1 [Example G3, N-[6-(r-1-Cyano-c-4-hydroxycyclohexyl)pyridin-3-yl]-5-methyl-1-(4-methylphenyl)-1H-pyrazole-4-carboxamide]
IC50 ([1]; Mus musculus, 72 h): 91.8 nM | minimal effective dose [5]: 1 mg/kg | inhibition at 1 µM [6]: 4.4%

Cc1c(C(=O)Nc2ccc([C@]3(C#N)CC[C@@H](O)CC3)nc2)cnn1-c1ccc(C(F)(F)F)cc1 [Example G6]
IC50 ([1]; Mus musculus, 72 h): 73.9 nM | Effective Dose [5]: 10 mg/kg | inhibition at 1 µM [6]: 26%

Cc1c(C(=O)Nc2ccc([C@]3(C#N)CC[C@@H](O)CC3)nc2)cnn1-c1ccc(F)cc1F [Example G7]
IC50 ([1]; Mus musculus, 72 h): 198 nM | minimal effective dose [5]: 0.3 mg/kg | inhibition at 1 µM [6]: 5.2%

Cc1c(C(=O)Nc2ccc([C@]3(C#N)CC[C@H](O)CC3)nc2)cnn1-c1ccc(C(F)(F)F)cc1 [Example K2]
minimal effective dose [5]: 10 mg/kg
